According to patent publication US20210047297A1, “4-(3-AMINO-6-FLUORO-1H-INDAZOL-5-YL)-1,2,6-TRIMETHYL-1,4-DIHYDROPYRIDINE-3,5-DIC ARBONITRILE COMPOUNDS FOR TREATING HYPERPROLIFERATIVE DISORDERS” (Bayer Pharma Aktiengesellschaft, priority 2018, published 2021):

Each compound was assayed against T1, GST-AMPKα2/ß1/γ1 complex (full-length human AMPKα2) (Homo sapiens, UniProt P54619+P54646+Q9Y478) (assay: AMPK high ATP assay (TR-FRET-based AMPK activity inhibition assay)). Conditions: ATP concentration of 1 mM; median; read-out: AMPK high ATP assay IC50 [mol/l] (median).
T1 construct: purchased Carna Biosciences 02-114; host or cells: baculovirus expression system
Format: biochemical
Description: AMPK inhibitory activity of compounds of the present invention at an ATP concentration of 1 mM was quantified employing the TR-FRET-based AMPK activity inhibition assay as described in the following paragraphs.
Recombinant fusion protein of N-terminal Glutathion-S-Transferase (GST) and full-length human AMPKα2 [1-552(end) amino acids of accession number NP_006243.2] co-expressed with GST-PRKAB1 [1-270(end) amino acids of accession number NP_006244.2] and PRKAG1 [1-331(end) amino acids of accession number NP_002724.1] using a baculovirus expression system, purified as GST-AMPKα2/ß1/γ1 complex by using glutathione sepharose chromatography, activated with His-tagged CaMKK1 and subsequently purified by using glutathione sepharose chromatography, was purchased from Carna Biosciences (product number 02-114) and used as kinase. As substrate for the kinase reaction biotinylated peptide biotin-Ahx-HMRSAMSFAEPG (C-terminus in amide form) was used which can be purchased e.g. form the company Biosyntan (Berlin-Buch, Germany). For the assay 50 nl of a 100 fold concentrated solution of the test compound in DMSO was pipetted into either a black low volume 384 well microtiter plate or a black 1536 well microtiter plate (both Greiner Bio-One, Frickenhausen, Germany), 2 μl of a solution of GST-AMPKα2/ß1/γ1 in aqueous assay buffer [50 mM Hepes pH 7.5, 10 mM MgCl2, 5 mM β-glycerophosphate, 2.5 mM dithiothreitol (DTT), 0.5 mM EGTA, 0.01% (w/v) bovine γ-globulin (Sigma-Aldrich, #G5009), 0.01% (v/v) Triton X-100 (Sigma-Aldrich, #T9284)] were added and the mixture was incubated for 15 min at 22° C. to allow pre-binding of the test compounds to the enzyme before the start of the kinase reaction. Then the kinase reaction was started by the addition of 3 μl of a solution of adenosine-tri-phosphate (ATP, 1.67 mM=>final conc. in the 5 μl assay volume is 1 mM), adenosine-mono-phosphate (AMP, 3.33 μM=>final conc. in the 5 μl assay volume is 2 μM), and substrate (0.83 μM=>final conc. in the 5 μl assay volume is 0.5 μM) in assay buffer and the resulting mixture was incubated for a reaction time of 30 min at 22° C. The concentration of GST-AMPK α2/ß1/γ1 was adjusted depending of the activity of the enzyme lot and was chosen appropriate to have the assay in the linear range, a typical concentration was 0.08 nM. The reaction was stopped by the addition of 3 μl of a solution of TR-FRET detection reagents (0.2 μM streptavidine-XL665 [Cisbio Bioassays, Codolet, France] and 3.33 nM anti-phosho-Serine antibody [Merck Millipore, “STK antibody”, cat. #35-002] and 3.33 nM anti mouse IgG-Tb cryptate, a Terbium-cryptate labelled anti-mouse IgG antibody [Cisbio Bioassays, Codolet, France] in an aqueous EDTA-solution (166.7 mM EDTA, 0.06 (w/v) bovine serum albumin in 50 mM HEPES pH 7.5).
The resulting mixture was incubated 1 h at 22° C. to allow the formation of complex between the phosphorylated biotinylated peptide and the detection reagents. Subsequently the amount of phosphorylated substrate was evaluated by measurement of the resonance energy transfer from the Tb-cryptate to the streptavidine-XL665. Therefore, the fluorescence emissions at 620 nm and 665 nm after excitation at 350 nm was measured in a TR-FRET reader, e.g. a Pherastar FS (BMG Labtechnologies, Offenburg, Germany) or a Viewlux (Perkin-Elmer). The ratio of the emissions at 665 nm and at […] was taken as the measure for the amount of phosphorylated substrate. The data were normalised (enzyme reaction without inhibitor=0 inhibition, all other assay components but no enzyme=100% inhibition).

T1 sequence (P54646 whole entry): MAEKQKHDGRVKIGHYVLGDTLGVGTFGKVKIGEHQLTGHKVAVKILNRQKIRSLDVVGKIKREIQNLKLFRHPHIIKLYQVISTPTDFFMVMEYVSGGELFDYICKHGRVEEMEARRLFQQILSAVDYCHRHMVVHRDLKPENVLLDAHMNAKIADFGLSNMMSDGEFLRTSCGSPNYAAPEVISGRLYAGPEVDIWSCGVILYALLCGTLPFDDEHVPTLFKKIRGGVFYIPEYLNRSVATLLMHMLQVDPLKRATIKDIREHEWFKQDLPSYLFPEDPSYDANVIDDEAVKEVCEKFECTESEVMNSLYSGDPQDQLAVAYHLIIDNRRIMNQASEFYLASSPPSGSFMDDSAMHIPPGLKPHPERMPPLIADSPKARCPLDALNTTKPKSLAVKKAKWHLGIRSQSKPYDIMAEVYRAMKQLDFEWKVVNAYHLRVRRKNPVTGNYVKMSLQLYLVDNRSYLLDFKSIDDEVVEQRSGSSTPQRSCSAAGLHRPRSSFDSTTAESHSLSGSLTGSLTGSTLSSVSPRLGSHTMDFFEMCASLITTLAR
T1 sequence (Q9Y478 whole entry partner): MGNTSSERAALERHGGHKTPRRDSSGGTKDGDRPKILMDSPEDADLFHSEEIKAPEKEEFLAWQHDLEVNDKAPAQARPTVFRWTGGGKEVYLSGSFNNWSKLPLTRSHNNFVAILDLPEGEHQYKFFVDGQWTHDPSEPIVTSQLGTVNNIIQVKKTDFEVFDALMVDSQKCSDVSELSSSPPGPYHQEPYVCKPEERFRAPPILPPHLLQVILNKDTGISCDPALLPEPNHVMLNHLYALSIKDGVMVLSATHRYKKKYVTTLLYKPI
T1 sequence (P54619 whole entry partner): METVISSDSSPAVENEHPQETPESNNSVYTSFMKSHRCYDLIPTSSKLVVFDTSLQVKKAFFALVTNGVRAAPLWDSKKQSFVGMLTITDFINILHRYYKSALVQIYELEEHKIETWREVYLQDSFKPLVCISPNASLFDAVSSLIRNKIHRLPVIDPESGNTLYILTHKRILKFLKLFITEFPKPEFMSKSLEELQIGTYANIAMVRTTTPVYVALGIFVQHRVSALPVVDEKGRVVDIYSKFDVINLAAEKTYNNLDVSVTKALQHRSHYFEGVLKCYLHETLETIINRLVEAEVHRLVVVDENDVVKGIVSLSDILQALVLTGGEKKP

Compared with CC1=C(C#N)C(c2cc3c(NC(=O)C(C)c4cccnc4)n[nH]c3c(C)c2F)C(C#N)=C(C)N1C (racemic) [Example 21, (rac)-N-[5-(3,5-dicyano-1,2,6-trimethyl-1,4-dihydropyridin-4-yl)-6-fluoro-7-methyl-1H-indazol-3-yl]-2-(pyridin-3-yl)propanamide], CC1=C(C#N)C(c2cc3c(NC(=O)Cc4ccc(C)nc4)n[nH]c3c(C)c2F)C(C#N)=C(C)N1C [Example 14, N-[5-(3,5-dicyano-1,2,6-trimethyl-1,4-dihydropyridin-4-yl)-6-fluoro-7-methyl-1H-indazol-3-yl]-2-(6-methylpyridin-3-yl)acetamide] is 3.9-fold lower in IC50: 84 nM for the first, 21.5 nM for the second. The second is the more potent here.

Compared with CCn1nc(C)cc1C(=O)Nc1n[nH]c2c(I)c(F)c(C3C(C#N)=C(C)N(C)C(C)=C3C#N)cc12 [Example 1, N-[5-(3,5-dicyano-1,2,6-trimethyl-1,4-dihydropyridin-4-yl)-6-fluoro-7-iodo-1H-indazol-3-yl]-1-ethyl-3-methyl-1H-pyrazole-5-carboxamide], CCn1nc(C)cc1C(=O)Nc1n[nH]c2c(C)c(F)c(C3C(C#N)=C(C)N(C)C(C)=C3C#N)cc12 [Example 5, N-[5-(3,5-dicyano-1,2,6-trimethyl-1,4-dihydropyridin-4-yl)-6-fluoro-7-methyl-1H-indazol-3-yl]-1-ethyl-3-methyl-1H-pyrazole-5-carboxamide] is 17-fold lower in IC50: 62.6 nM for the first, 3.74 nM for the second. The second is the more potent here.

First: CC1=C(C#N)C(c2cc3c(NC(=O)c4ccccc4Cl)n[nH]c3c(I)c2F)C(C#N)=C(C)N1C [Example 2, 2-chloro-N-[5-(3,5-dicyano-1,2,6-trimethyl-1,4-dihydropyridin-4-yl)-6-fluoro-7-iodo-1H-indazol-3-yl]benzamide]
Second: CC1=C(C#N)C(c2cc3c(NC(=O)c4ccccc4Cl)n[nH]c3c(C)c2F)C(C#N)=C(C)N1C [Example 6, 2-chloro-N-[5-(3,5-dicyano-1,2,6-trimethyl-1,4-dihydropyridin-4-yl)-6-fluoro-7-methyl-1H-indazol-3-yl]benzamide]
The IC50 of the first is 3.6-fold higher: 13 nM for the first, 3.65 nM for the second.

Going from CC1=C(C#N)C(c2cc3c(NC(=O)c4cn(C)nc4C(F)(F)F)n[nH]c3c(I)c2F)C(C#N)=C(C)N1C [Example 3, N-[5-(3,5-dicyano-1,2,6-trimethyl-1,4-dihydropyridin-4-yl)-6-fluoro-7-iodo-1H-indazol-3-yl]-1-methyl-3-(trifluoromethyl)-1H-pyrazole-4-carboxamide] to CC1=C(C#N)C(c2cc3c(NC(=O)c4cn(C)nc4C(F)(F)F)n[nH]c3c(C)c2F)C(C#N)=C(C)N1C [Example 9, N-[5-(3,5-dicyano-1,2,6-trimethyl-1,4-dihydropyridin-4-yl)-6-fluoro-7-methyl-1H-indazol-3-yl]-1-methyl-3-(trifluoromethyl)-1H-pyrazole-4-carboxamide], the IC50 falls from 54.3 nM to 12.2 nM (4.5-fold).

First: CC1=C(C#N)C(c2cc3c(NC(=O)c4ccc(OCCN5CCCC5)cc4Cl)n[nH]c3c(I)c2F)C(C#N)=C(C)N1C [Example 4, 2-chloro-N-[5-(3,5-dicyano-1,2,6-trimethyl-1,4-dihydropyridin-4-yl)-6-fluoro-7-iodo-1H-indazol-3-yl]-4-[2-(pyrrolidin-1-yl)ethoxy]benzamide]
Second: CC1=C(C#N)C(c2cc3c(NC(=O)c4ccc(OCCN5CCCC5)cc4)n[nH]c3c(C)c2F)C(C#N)=C(C)N1C [Example 13, N-[5-(3,5-dicyano-1,2,6-trimethyl-1,4-dihydropyridin-4-yl)-6-fluoro-7-methyl-1H-indazol-3-yl]-4-[2-(pyrrolidin-1-yl)ethoxy]benzamide]
The IC50 of the first is 5-fold lower: 2.7 nM for the first, 13.4 nM for the second.

Going from CC1=C(C#N)C(c2cc3c(NC(=O)c4c(F)cccc4F)n[nH]c3c(C)c2F)C(C#N)=C(C)N1C [Example 7, N-[5-(3,5-dicyano-1,2,6-trimethyl-1,4-dihydropyridin-4-yl)-6-fluoro-7-methyl-1H-indazol-3-yl]-2,6-difluorobenzamide] to CC1=C(C#N)C(c2cc3c(NC(=O)c4c(F)cccc4Cl)n[nH]c3c(C)c2F)C(C#N)=C(C)N1C [Example 11, 2-chloro-N-[5-(3,5-dicyano-1,2,6-trimethyl-1,4-dihydropyridin-4-yl)-6-fluoro-7-methyl-1H-indazol-3-yl]-6-fluorobenzamide], the IC50 falls from 19.6 nM to 8.9 nM (2.2-fold). The second is the more potent here.

CCc1ccccc1C(=O)Nc1n[nH]c2c(C)c(F)c(C3C(C#N)=C(C)N(C)C(C)=C3C#N)cc12 [Example 8, N-[5-(3,5-dicyano-1,2,6-trimethyl-1,4-dihydropyridin-4-yl)-6-fluoro-7-methyl-1H-indazol-3-yl]-2-ethylbenzamide] and CCn1cc(C(=O)Nc2n[nH]c3c(C)c(F)c(C4C(C#N)=C(C)N(C)C(C)=C4C#N)cc23)c(C)n1 [Example 12, N-[5-(3,5-dicyano-1,2,6-trimethyl-1,4-dihydropyridin-4-yl)-6-fluoro-7-methyl-1H-indazol-3-yl]-1-ethyl-3-methyl-1H-pyrazole-4-carboxamide] are within 1.5-fold of each other in IC50: 15.1 nM for the first, 15.7 nM for the second.

Going from CC1=C(C#N)C(c2cc3c(NC(=O)c4cc(F)ccc4C(F)(F)F)n[nH]c3c(C)c2F)C(C#N)=C(C)N1C [Example 10, N-[5-(3,5-dicyano-1,2,6-trimethyl-1,4-dihydropyridin-4-yl)-6-fluoro-7-methyl-1H-indazol-3-yl]-5-fluoro-2-(trifluoromethyl)benzamide] to COCCn1cc(C(=O)Nc2n[nH]c3c(C)c(F)c(C4C(C#N)=C(C)N(C)C(C)=C4C#N)cc23)c(C(F)(F)F)n1 [Example 15, N-[5-(3,5-dicyano-1,2,6-trimethyl-1,4-dihydropyridin-4-yl)-6-fluoro-7-methyl-1H-indazol-3-yl]-1-(2-methoxyethyl)-3-(trifluoromethyl)-1H-pyrazole-4-carboxamide], the IC50 falls from 26.2 nM to 7.76 nM (3.4-fold). The second is the more potent here.

Going from CC1=C(C#N)C(c2cc3c(NC(=O)c4cn(CCN5CCCC5)nc4C(F)(F)F)n[nH]c3c(C)c2F)C(C#N)=C(C)N1C [Example 16, N-[5-(3,5-dicyano-1,2,6-trimethyl-1,4-dihydropyridin-4-yl)-6-fluoro-7-methyl-1H-indazol-3-yl]-1-[2-(pyrrolidin-1-yl)ethyl]-3-(trifluoromethyl)-1H-pyrazole-4-carboxamide] to CC1=C(C#N)C(c2cc3c(NC(=O)c4cnn(CCN5CCCC5)c4C(F)(F)F)n[nH]c3c(C)c2F)C(C#N)=C(C)N1C [Example 19, N-[5-(3,5-dicyano-1,2,6-trimethyl-1,4-dihydropyridin-4-yl)-6-fluoro-7-methyl-1H-indazol-3-yl]-1-[2-(pyrrolidin-1-yl)ethyl]-5-(trifluoromethyl)-1H-pyrazole-4-carboxamide], the IC50 rises from 5.71 nM to 37.6 nM (6.6-fold).

Compared with CC1=C(C#N)C(c2cc3c(NC(=O)c4cn(CC(C)(C)O)nc4C(F)(F)F)n[nH]c3c(C)c2F)C(C#N)=C(C)N1C [Example 17, N-[5-(3,5-dicyano-1,2,6-trimethyl-1,4-dihydropyridin-4-yl)-6-fluoro-7-methyl-1H-indazol-3-yl]-1-(2-hydroxy-2-methylpropyl)-3-(trifluoromethyl)-1H-pyrazole-4-carboxamide], CC1=C(C#N)C(c2cc3c(NC(=O)c4cnn(CC(C)(C)O)c4C(F)(F)F)n[nH]c3c(C)c2F)C(C#N)=C(C)N1C [Example 18, N-[5-(3,5-dicyano-1,2,6-trimethyl-1,4-dihydropyridin-4-yl)-6-fluoro-7-methyl-1H-indazol-3-yl]-1-(2-hydroxy-2-methylpropyl)-5-(trifluoromethyl)-1H-pyrazole-4-carboxamide] is 5.7-fold higher in IC50: 7.95 nM for the first, 45.4 nM for the second.
